Legend:
[1] = in vivo calciuric activity, calcium levels in rat urine; details: relative activity (A = 1)
murine keratinocytes = experiment: antiproliferative activity in murine keratinocytes (standard in vitro protocol); assay type: cell-based; details: Mus musculus, Keratinocyte, read-out: Antiproliferative IC50
human recombinant VDR = molecular target: T1, human recombinant VDR (Homo sapiens, UniProt P11473); experiment: competitive binding to the human VDR
T1 construct: purchased Biomol SE-140
T1 sequence (P11473 1-427): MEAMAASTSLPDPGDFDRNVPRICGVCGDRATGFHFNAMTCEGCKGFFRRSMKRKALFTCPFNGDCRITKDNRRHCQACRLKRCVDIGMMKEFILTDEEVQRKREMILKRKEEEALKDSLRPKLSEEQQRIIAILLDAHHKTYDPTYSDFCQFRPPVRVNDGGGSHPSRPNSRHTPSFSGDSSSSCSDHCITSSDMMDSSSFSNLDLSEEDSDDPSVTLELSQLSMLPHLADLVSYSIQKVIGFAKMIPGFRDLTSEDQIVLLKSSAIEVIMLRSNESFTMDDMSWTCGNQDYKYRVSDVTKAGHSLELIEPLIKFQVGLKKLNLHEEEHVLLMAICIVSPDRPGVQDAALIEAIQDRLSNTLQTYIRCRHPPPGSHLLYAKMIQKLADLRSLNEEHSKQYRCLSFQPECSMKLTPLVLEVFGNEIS

| SMILES | Calciuria Activity Compared to 1 [1] | IC50 (murine keratinocytes) | IC50 (human recombinant VDR) |
| --- | --- | --- | --- |
| C=C1/C(=C\C=C2/CCC[C@]3(C)[C@@H]([C@H](C)CCCC(C)(C)O)CC[C@@H]23)C[C@@H](O)C[C@@H]1O [A, 1α,25-dihydroxyvitamin D3, reference compound] | 1 | 80 nM | – |
| C=C1/C(=C\C=C2/CCC[C@]3(C)[C@@H]([C@H](C)COCC4=CCCCC4(C)C)CC[C@@H]23)C[C@@H](O)C[C@@H]1O [Analog 1d] | <0.02 | 50 nM | 300 nM |

— patent US9481646B2, “Low calcemic, highly antiproliferative, analogs of calcitriol” (The Johns Hopkins University, priority 2007, dated 2016)
